Measurements published in ChEMBL document CHEMBL3044784, “Molecular Basis of Resistance to s-Triazine Herbicides in Poa annua L. and Its Photosynthetic Properties under Different Light Conditions” (J Pestic Sci, 2001).
Calls of active or inactive are those of the source. The rule behind the calls is not given here.

Key:
Poa annua [1] = experiment: Pre-emergence herbicidal activity against s-triazine-resistant Poa annua at 0.5 kg/ha after 14 days by pot test; type: functional, organism-based
Poa annua [2] = experiment: Herbicidal activity against hydroponic culture of s-triazine-susceptible Poa annua at 100 ppm after 14 days; type: functional, organism-based
Poa annua [3] = experiment: Pre-emergence herbicidal activity against s-triazine-resistant Poa annua at 1 kg/ha after 14 days by pot test; type: functional, organism-based
Poa annua [4] = experiment: Pre-emergence herbicidal activity against s-triazine-resistant Poa annua at 0.05 kg/ha after 14 days by pot test; type: functional, organism-based
Poa annua [5] = experiment: Pre-emergence herbicidal activity against s-triazine-susceptible Poa annua at 1 kg/ha after 14 days by pot test; type: functional, organism-based
Poa annua [6] = experiment: Pre-emergence herbicidal activity against s-triazine-susceptible Poa annua at 0.5 kg/ha after 14 days by pot test; type: functional, organism-based
Poa annua [7] = experiment: Herbicidal activity against hydroponic culture of s-triazine-resistant Poa annua at 1 ppm after 14 days; type: functional, organism-based
Poa annua [8] = experiment: Pre-emergence herbicidal activity against s-triazine-resistant Poa annua at 0.25 kg/ha after 14 days by pot test; type: functional, organism-based
Poa annua [9] = experiment: Pre-emergence herbicidal activity against s-triazine-resistant Poa annua at 0.10 kg/ha after 14 days by pot test; type: functional, organism-based
Poa annua [10] = experiment: Herbicidal activity against hydroponic culture of s-triazine-resistant Poa annua at 0.1 ppm after 14 days; type: functional, organism-based
Poa annua [11] = experiment: Herbicidal activity against hydroponic culture of s-triazine-susceptible Poa annua at 1000 ppm after 14 days; type: functional, organism-based
Poa annua [12] = experiment: Herbicidal activity against hydroponic culture of s-triazine-resistant Poa annua at 1000 ppm after 14 days; type: functional, organism-based
Poa annua [13] = experiment: Herbicidal activity against hydroponic culture of s-triazine-resistant Poa annua at 100 ppm after 14 days; type: functional, organism-based
Poa annua [14] = experiment: Herbicidal activity against hydroponic culture of s-triazine-resistant Poa annua at 10 ppm after 14 days; type: functional, organism-based
Poa annua [15] = experiment: Pre-emergence herbicidal activity against s-triazine-susceptible Poa annua at 0.05 kg/ha after 14 days by pot test; type: functional, organism-based
Photosystem Q(B) protein [16] = target: T1, Photosystem Q(B) protein (Poa annua, UniProt Q9XQA6); experiment: Inhibition ofphotosystem II in s-triazine-susceptible Poa annua leaf thylakoid membrane assessed as reduction of photosynthetic electron transport; conditions: read-out: I50
Photosystem Q(B) protein [17] = target: T1, Photosystem Q(B) protein; experiment: Inhibition of photosystem II in s-triazine-resistant Poa annua leaf thylakoid membrane assessed as reduction of photosynthetic electron transport; conditions: read-out: I50
[18] = target: Photosystem Q(B) protein (Poa annua) (UniProt Q9XQA6); experiment: Resistant ratio, ratio of I50 for photosystem II in s-triazine-resistant Poa annua leaf thylakoid membrane to I50 for photosystem II in s-triazine-susceptible Poa annua leaf thylakoid membrane
Poa annua [19] = experiment: Herbicidal activity against hydroponic culture of s-triazine-susceptible Poa annua at 10 ppm after 14 days; type: functional, organism-based
Poa annua [20] = experiment: Herbicidal activity against hydroponic culture of s-triazine-susceptible Poa annua at 0.1 ppm after 14 days; type: functional, organism-based
Poa annua [21] = experiment: Herbicidal activity against hydroponic culture of s-triazine-susceptible Poa annua at 1 ppm after 14 days; type: functional, organism-based

CCNc1nc(Cl)nc(NC(C)(C)C#N)n1
Activity (Poa annua [1]): inactive
Activity (Poa annua [2]): inactive
Activity (Poa annua [3]): inactive
Activity (Poa annua [4]): inactive
Activity (Poa annua [5]): Active
Activity (Poa annua [6]): Active
Activity (Poa annua [7]): inactive
Activity (Poa annua [8]): inactive
Activity (Poa annua [9]): inactive
Activity (Poa annua [10]): inactive
Activity (Poa annua [11]): inactive

CCNc1nc(Cl)nc(NCC)n1
Activity (Poa annua [1]): inactive
Activity (Poa annua [12]): inactive
Activity (Poa annua [3]): inactive
Activity (Poa annua [4]): inactive
Activity (Poa annua [5]): Active
Activity (Poa annua [13]): inactive
Activity (Poa annua [6]): inactive
Activity (Poa annua [7]): inactive
Activity (Poa annua [14]): inactive
Activity (Poa annua [8]): inactive
Activity (Poa annua [9]): inactive
Activity (Poa annua [10]): inactive
Activity (Poa annua [11]): Active

CCNc1nc(NCC)nc(SC)n1
Activity (Poa annua [1]): inactive
Activity (Poa annua [2]): Active
Activity (Poa annua [3]): inactive
Activity (Poa annua [4]): inactive
Activity (Poa annua [7]): inactive
Activity (Poa annua [8]): inactive
Activity (Poa annua [9]): inactive
Activity (Poa annua [10]): inactive
Activity (Poa annua [15]): inactive
Activity (Poa annua [11]): Active

CSc1nc(NC(C)C)nc(NC(C)C)n1
Activity (Poa annua [1]): inactive
Activity (Poa annua [12]): inactive
Activity (Poa annua [3]): inactive
Activity (Poa annua [4]): inactive
Activity (Poa annua [13]): inactive
Activity (Poa annua [7]): inactive
Activity (Poa annua [14]): inactive
Activity (Poa annua [8]): inactive
Activity (Poa annua [9]): inactive
Activity (Poa annua [10]): inactive
Activity (Poa annua [11]): Active

CCNc1nc(Cl)nc(NC(C)C)n1 [ATRAZINE]
Activity (Poa annua [1]): inactive
IC50 (Photosystem Q(B) protein [16]): 160 nM
Activity (Poa annua [2]): Active
Activity (Poa annua [3]): inactive
Activity (Poa annua [4]): inactive
Activity (Poa annua [5]): Active
IC50 (Photosystem Q(B) protein [17]): > 100000 nM
Activity (Poa annua [13]): inactive
Ratio [18]: > 625
Activity (Poa annua [6]): Active
Activity (Poa annua [7]): inactive
Activity (Poa annua [14]): inactive
Activity (Poa annua [8]): inactive
Activity (Poa annua [9]): inactive
Activity (Poa annua [10]): inactive
Activity (Poa annua [11]): Active

CN(C)C(=O)Nc1ccc(Cl)c(Cl)c1 [DCMU]
IC50 (Photosystem Q(B) protein [16]): 130 nM
Activity (Poa annua [19]): Active
Activity (Poa annua [2]): Active
Activity (Poa annua [12]): Active
Activity (Poa annua [3]): Active
Activity (Poa annua [5]): Active
IC50 (Photosystem Q(B) protein [17]): 400 nM
Activity (Poa annua [13]): Active
Ratio [18]: 3.1
Activity (Poa annua [6]): Active
Activity (Poa annua [20]): inactive
Activity (Poa annua [14]): Active
Activity (Poa annua [10]): inactive
Activity (Poa annua [11]): Active

CCC(C)c1cc([N+](=O)[O-])cc([N+](=O)[O-])c1O (centres undefined) [DINOSEB]
IC50 (Photosystem Q(B) protein [16]): 4000 nM
Activity (Poa annua [2]): Active
Activity (Poa annua [12]): Active
Activity (Poa annua [3]): Active
IC50 (Photosystem Q(B) protein [17]): 400 nM
Activity (Poa annua [13]): Active
Ratio [18]: 0.1
Activity (Poa annua [20]): inactive
Activity (Poa annua [14]): Active
Activity (Poa annua [21]): inactive
Activity (Poa annua [10]): inactive
Activity (Poa annua [11]): Active

O=c1[nH]c2c(c(=O)n1C1CCCCC1)CCC2 [LENACIL]
IC50 (Photosystem Q(B) protein [16]): 1000 nM
Activity (Poa annua [12]): inactive
Activity (Poa annua [4]): inactive
Activity (Poa annua [5]): Active
IC50 (Photosystem Q(B) protein [17]): 20000 nM
Activity (Poa annua [13]): inactive
Ratio [18]: 20
Activity (Poa annua [6]): Active
Activity (Poa annua [7]): inactive
Activity (Poa annua [14]): inactive
Activity (Poa annua [10]): inactive
Activity (Poa annua [11]): Active
